# Assay results as given in patent publication US10077261B2, “Imidazolin-5-one derivative useful as FASN inhibitors for the treatment of cancer” (Janssen Pharmaceutica NV, priority 2012, dated 2018).
# Assays:
# [1] = test system: A2780 ovarian cells; assay: A2780 ovarian cell proliferation assay in lipid reduced medium, without palmitate (MTT); assay type: cell-based; conditions: Homo sapiens, A2780, 96 h; read-out: pIC50 A2780 Ovarian Cell, Without Palmitate (converted)
# [2] = test system: A2780 ovarian cells; assay: A2780 ovarian cell proliferation assay in lipid reduced medium, with palmitate (MTT); assay type: cell-based; conditions: Homo sapiens, A2780, 96 h; read-out: pIC50 A2780 Ovarian Cell, With Palmitate (converted)
# How it was run: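 In this palmitate-supplemented format, compound dilutions (30 μM down to 0.01 μM) are added to cells in lipid-reduced serum with 25 μM palmitate, 0.2% fatty-acid-free BSA and 0.25% ethanol. After four days (96 h) MTT absorbance at 544 nm is recorded and fitted by minimum sum of squares.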
# [3] = target: T1, hFASN enzyme (full length) (Homo sapiens, UniProt P49327); assay: Fatty Acid Synthase (FASN) inhibition scintillation proximity assay; assay type: biochemical; conditions: for inhibition at 10 µM: read-out: Human FASN % inhibition @ 10 μM, 10 μM test compound; for IC50: read-out: Human FASN pIC50 (converted)
# T1 construct: 10 μL hFASN enzyme (full length, 300 ng, purified in house); made in house
# How it was run: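 Read-out relies on hydrophobic ³H-palmitate product, formed from ³H-acetyl-CoA and malonyl-CoA, binding streptavidin imaging beads, measured at 610±20 nm after at least 24 h. Full-length enzyme (300 ng) in phosphate buffer pH 7.5 with DTT; eight compound concentrations, 0.01–30 μM.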
# [4] = test system: PC-3M-Luc-C6 prostate cells; assay: In vitro PC-3M-Luc-C6 prostate cell proliferation assay in lipid reduced medium; assay type: cell-based; conditions: 96 h, read-out: pIC50 PC-3M-Luc-C6 prostate cell (converted)
# Method: PC-3M-Luc-C6 prostate cells were obtained from Xenogen Corporation. Cells were maintained in MEM supplemented with 10% Fetal Calf Serum (FCS, Hyclone), 2 mM glutamine, 1 mM sodium pyruvate, 1% BME vitamins (available from for example, Sigma Aldrich), 0.1 mM non Essential Amino Acid and 50 μg/ml Gentamicin. The cells were passaged twice a week.
# The next day 10 μl test compound/DMSO diluted in medium was added (3E-5M, 1E-5M, 3E-6M, 1E-6M, 3E-7M, 1E-7M, 3E-8M, 1E-8M final concentration). Compounds were tested in duplicate. After 96 h incubation at 37° C., 5% CO2 25 μl ATP-glow mix was added. The plate was incubated for 30 min at 37° C. and luminescence was measured with the Envision.
# Analysis: Determination of pIC50 Values
# pIC50 values were calculated as follows.
# where mLC and mHC are the means of the low control wells and high control wells on the plate, after manual exclusion of outliers. The relation between the % Controlmin values and concentration was fitted to a 4-parameter logistic curve using a non-linear least squares regression method to determine the pIC50 value. Outlying data points were excluded manually to get a correct fit. The pIC50 corresponds to −log 10(IC50), if the IC50 is expressed in molar units (http://www.ncbi.nlm.nih.gov/books/NBK91994). The IC50 parameter was always determined by non-linear regression, but one or more of the other parameters may have been held fixed on a relevant input value, such as 0 for the bottom values.
# [5] = target: Fatty Acid Synthase Keto-reductase Domain (FASN KR) (Homo sapiens, UniProt P49327); assay: Fatty Acid Synthase keto-reductase domain (FASN KR) inhibition, NADPH oxidation at 340 nm
# Method: After 20 minutes incubation at room temperature the plate was measured again (T2).
# The decrease in absorbance was calculated as (Absorbance before incubation T1)−(Absorbance following incubation T2).
# A plot of Controlmin versus test compound concentration was fitted to a 4-parameter logistic curve using a non-linear least squares regression method.
# [6] = test system: LNCaP-Vancouver prostate cells; assay: In vitro LNCaP Vancouver prostate cell proliferation assay in lipid reduced medium; assay type: cell-based; conditions: read-out: pIC50 LNCaP_Vancouver prostate cell (converted)
# T1 sequence (P49327 whole entry): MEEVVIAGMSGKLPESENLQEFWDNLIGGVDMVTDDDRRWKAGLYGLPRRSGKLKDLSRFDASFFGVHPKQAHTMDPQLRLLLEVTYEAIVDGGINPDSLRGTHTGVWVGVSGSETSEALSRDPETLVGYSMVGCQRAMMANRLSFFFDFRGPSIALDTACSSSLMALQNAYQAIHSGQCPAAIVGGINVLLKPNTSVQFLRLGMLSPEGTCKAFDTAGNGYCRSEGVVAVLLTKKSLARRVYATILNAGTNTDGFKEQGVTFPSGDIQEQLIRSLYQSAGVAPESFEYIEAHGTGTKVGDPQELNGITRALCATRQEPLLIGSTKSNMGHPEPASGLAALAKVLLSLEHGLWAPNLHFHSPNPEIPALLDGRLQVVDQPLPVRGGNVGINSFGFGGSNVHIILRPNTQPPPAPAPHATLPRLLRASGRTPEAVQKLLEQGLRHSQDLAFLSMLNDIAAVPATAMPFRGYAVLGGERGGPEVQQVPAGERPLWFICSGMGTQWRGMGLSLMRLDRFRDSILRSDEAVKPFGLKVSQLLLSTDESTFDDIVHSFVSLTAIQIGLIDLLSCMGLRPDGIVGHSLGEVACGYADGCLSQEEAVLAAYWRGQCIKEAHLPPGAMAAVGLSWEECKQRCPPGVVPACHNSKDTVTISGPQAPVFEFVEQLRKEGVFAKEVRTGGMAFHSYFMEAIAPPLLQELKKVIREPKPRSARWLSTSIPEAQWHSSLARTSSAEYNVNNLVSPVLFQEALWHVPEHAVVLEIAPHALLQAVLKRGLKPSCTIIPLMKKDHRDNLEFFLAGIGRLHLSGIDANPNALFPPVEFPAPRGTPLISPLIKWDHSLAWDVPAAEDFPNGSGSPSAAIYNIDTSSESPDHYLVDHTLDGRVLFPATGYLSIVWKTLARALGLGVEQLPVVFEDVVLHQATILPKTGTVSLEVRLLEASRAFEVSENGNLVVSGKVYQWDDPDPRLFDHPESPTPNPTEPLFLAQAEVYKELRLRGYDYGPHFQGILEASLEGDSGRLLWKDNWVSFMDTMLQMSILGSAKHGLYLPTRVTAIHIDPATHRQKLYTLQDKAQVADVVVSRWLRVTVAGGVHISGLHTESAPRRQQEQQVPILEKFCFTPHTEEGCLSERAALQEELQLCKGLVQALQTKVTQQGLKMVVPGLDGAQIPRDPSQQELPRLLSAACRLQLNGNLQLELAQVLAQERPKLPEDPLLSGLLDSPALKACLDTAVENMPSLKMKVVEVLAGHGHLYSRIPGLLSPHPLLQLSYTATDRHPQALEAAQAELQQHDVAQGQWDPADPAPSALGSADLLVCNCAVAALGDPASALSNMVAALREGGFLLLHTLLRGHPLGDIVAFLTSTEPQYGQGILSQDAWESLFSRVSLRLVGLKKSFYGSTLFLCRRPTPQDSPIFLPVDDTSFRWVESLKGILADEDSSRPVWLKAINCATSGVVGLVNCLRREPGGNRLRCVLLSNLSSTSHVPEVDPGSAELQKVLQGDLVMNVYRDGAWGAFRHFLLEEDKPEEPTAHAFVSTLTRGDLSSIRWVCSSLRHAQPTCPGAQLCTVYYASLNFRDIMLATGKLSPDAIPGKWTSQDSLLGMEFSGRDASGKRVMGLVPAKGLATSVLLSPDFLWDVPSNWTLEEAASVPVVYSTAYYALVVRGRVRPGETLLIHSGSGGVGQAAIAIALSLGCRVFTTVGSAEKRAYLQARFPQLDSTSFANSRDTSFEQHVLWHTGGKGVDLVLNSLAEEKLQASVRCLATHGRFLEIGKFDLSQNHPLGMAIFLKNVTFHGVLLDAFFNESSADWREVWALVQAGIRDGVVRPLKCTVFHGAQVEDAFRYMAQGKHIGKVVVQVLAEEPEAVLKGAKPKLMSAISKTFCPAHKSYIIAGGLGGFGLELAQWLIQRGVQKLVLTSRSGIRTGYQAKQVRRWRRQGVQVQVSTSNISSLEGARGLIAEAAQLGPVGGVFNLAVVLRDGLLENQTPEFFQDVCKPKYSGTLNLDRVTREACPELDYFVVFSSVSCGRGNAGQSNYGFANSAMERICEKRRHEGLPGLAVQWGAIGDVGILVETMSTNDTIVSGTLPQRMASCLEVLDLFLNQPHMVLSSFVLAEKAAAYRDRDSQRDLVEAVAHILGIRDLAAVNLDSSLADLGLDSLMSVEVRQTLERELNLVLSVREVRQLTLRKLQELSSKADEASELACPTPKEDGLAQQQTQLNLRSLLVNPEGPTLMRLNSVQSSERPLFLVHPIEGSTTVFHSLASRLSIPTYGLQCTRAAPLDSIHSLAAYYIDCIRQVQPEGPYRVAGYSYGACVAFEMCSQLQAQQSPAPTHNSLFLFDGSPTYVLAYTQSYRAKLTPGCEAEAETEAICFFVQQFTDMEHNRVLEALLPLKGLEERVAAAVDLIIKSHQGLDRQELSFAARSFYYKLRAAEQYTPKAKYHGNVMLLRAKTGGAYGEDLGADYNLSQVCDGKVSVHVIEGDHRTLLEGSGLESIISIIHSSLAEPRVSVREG
# Fatty Acid Synthase Keto-reductase Domain (FASN KR), sequence (P49327 whole entry, the tested form may be a part): as the sequence (P49327 whole entry) above
smiles,measurement,setting,value
"O=C(Nc1cccc(-c2ccc(C3=NC4(CC4)C(=O)N3C[C@@H]3CCN(C(=O)C4CC4)C3)c(F)c2)c1)C1CC1 [compound 585, N-[4′-(6-{[(3R)-1-(Cyclopropylcarbonyl)pyrrolidin-3-yl]methyl}-7-oxo-4,6-diazaspiro[2.4]hept-4-en-5-yl)-3′-fluorobiphenyl-3-yl]cyclopropanecarboxamide]",IC50,[1],83.2 nM
same,IC50,[2],> 10000 nM
same,inhibition at 10 µM,[3],99%
same,IC50,[3],112 nM
same,IC50,[4],100 nM
same,IC50,[5],162 nM
"O=C(C1CC1)N1CC(CN2C(=O)C3(CC3)N=C2c2ccc(-c3ccc4cc[nH]c4c3)c(F)c2)C1 [compound 442, 6-{[1-(Cyclopropylcarbonyl)azetidin-3-yl]methyl}-5-[3-fluoro-4-(1H-indol-6-yl)phenyl]-4,6-diazaspiro[2.4]hept-4-en-7-one]",IC50,[1],257 nM
same,IC50,[2],> 10000 nM
same,inhibition at 10 µM,[3],94%
same,IC50,[3],200 nM
same,IC50,[4],513 nM
same,IC50,[5],339 nM
O=C(C1CC1)N1CC[C@@H](CN2C(=O)C3(CC3)N=C2c2ccc(-c3cccc(NS(=O)(=O)C4CC4)c3)cc2F)C1 [compound 318],IC50,[1],~70.8 nM
same,IC50,[2],> 10000 nM
same,inhibition at 10 µM,[3],100%
same,IC50,[3],66.1 nM
same,IC50,[4],52.5 nM
same,IC50,[5],123 nM
"O=C(C1CC1)N1CC(CN2C(=O)C3(CC3)N=C2c2ccc(-c3cccc4[nH]ncc34)c(F)c2)C1 [compound 443, 6-{[1-(Cyclopropylcarbonyl)azetidin-3-yl]methyl}-5-[3-fluoro-4-(1H-indazol-4-yl)phenyl]-4,6-diazaspiro[2.4]hept-4-en-7-one]",IC50,[1],794 nM
same,IC50,[2],> 10000 nM
same,inhibition at 10 µM,[3],88%
same,IC50,[3],912 nM
same,IC50,[4],851 nM
same,IC50,[5],1050 nM
"Cc1cc(-c2ccc3c(c2)c(Cl)nn3C)ccc1C1=NC2(CC2)C(=O)N1CC1CN(C(=O)C2CC2)C1 [compound 591, 5-[4-(3-Chloro-1-methyl-1H-indazol-5-yl)-2-methylphenyl]-6-{[1-(cyclopropylcarbonyl)azetidin-3-yl]methyl}-4,6-diazaspiro[2.4]hept-4-en-7-one]",IC50,[1],~347 nM
same,IC50,[2],> 10000 nM
same,inhibition at 10 µM,[3],93%
same,IC50,[3],195 nM
same,IC50,[4],372 nM
same,IC50,[5],1050 nM
"Cc1cc2cc(-c3ccc(C4=NC5(CC5)C(=O)N4CC4CN(C(=O)C5CC5)C4)c(C)c3)ccc2[nH]1 [compound 263, 6-((1-(cyclopropanecarbonyl)azetidin-3-yl)methyl)-5-(2-methyl-4-(2-methyl-1H-indol-5-yl)phenyl)-4,6-diazaspiro[2.4]hept-4-en-7-one]",IC50,[1],120 nM
same,IC50,[2],> 10000 nM
same,inhibition at 10 µM,[3],105%
same,IC50,[3],51.3 nM
same,IC50,[4],112 nM
same,IC50,[5],251 nM
"N#Cc1ccc2sc(-c3ccc(C4=NC5(CC5)C(=O)N4CC4CN(C(=O)C5CC5)C4)c(F)c3)nc2c1 [compound 652, 2-[4-(6-{[1-(Cyclopropylcarbonyl)azetidin-3-yl]methyl}-7-oxo-4,6-diazaspiro[2.4]hept-4-en-5-yl)-3-fluorophenyl]-1,3-benzothiazole-5-carbonitrile]",IC50,[1],174 nM
same,IC50,[2],> 6170 nM
same,inhibition at 10 µM,[3],97%
same,IC50,[3],186 nM
same,IC50,[5],347 nM
same,IC50,[6],1200 nM
"O=C(C1CC1)N1CC[C@@H](CN2C(=O)C3(CC3)N=C2c2ccc(-c3ccc4cnc(Cl)cc4c3)cc2)C1 [compound 466, 5-[4-(3-Chloroisoquinolin-6-yl)phenyl]-6-{[(3R)-1-(cyclopropylcarbonyl)pyrrolidin-3-yl]methyl}-4,6-diazaspiro[2.4]hept-4-en-7-one]",IC50,[1],~2690 nM
same,IC50,[2],> 10000 nM
same,inhibition at 10 µM,[3],87%
same,IC50,[3],479 nM
same,IC50,[5],1350 nM
same,IC50,[6],3800 nM
"Cc1sc2ccc(-c3ccc(C4=NC5(CC5)C(=O)N4C[C@@H]4CCN(C(=O)C5CC5)C4)cc3F)cc2c1C [compound 406, 6-{[(3R)-1-(Cyclopropylcarbonyl)pyrrolidin-3-yl]methyl}-5-[4-(2,3-dimethyl-1-benzothiophen-5-yl)-3-fluorophenyl]-4,6-diazaspiro[2.4]hept-4-en-7-one]",IC50,[1],6030 nM
same,IC50,[2],> 10000 nM
same,inhibition at 10 µM,[3],99%
same,IC50,[3],126 nM
same,IC50,[5],363 nM
same,IC50,[6],7080 nM
"O=C1CCc2cc(-c3ccc(C4=NC5(CC5)C(=O)N4C[C@@H]4CCN(C(=O)C5CC5)C4)cc3)ccc2N1 [compound 512, 6-[4-(6-{[(3R)-1-(Cyclopropylcarbonyl)pyrrolidin-3-yl]methyl}-7-oxo-4,6-diazaspiro[2.4]hept-4-en-5-yl)phenyl]-3,4-dihydroquinolin-2(1H)-one]",IC50,[1],1000 nM
same,IC50,[2],> 10000 nM
same,inhibition at 10 µM,[3],87%
same,IC50,[3],676 nM
same,IC50,[5],3090 nM
same,IC50,[6],3980 nM
"Cn1ncc2cc(-c3ccc(C4=NC5(CC5)C(=O)N4C[C@@H]4CCN(C(=O)C5CC5)C4)cc3F)ccc21 [compound 405, 6-{[(3R)-1-(Cyclopropylcarbonyl)pyrrolidin-3-yl]methyl}-5-[3-fluoro-4-(1-methyl-1H-indazol-5-yl)phenyl]-4,6-diazaspiro[2.4]hept-4-en-7-one]",IC50,[1],479 nM
same,IC50,[2],> 10000 nM
same,IC50,[4],457 nM
"O=C(C1CC1)N1CC[C@@H](CN2C(=O)C3(CC3)N=C2c2ccc(-c3cccc4[nH]ncc34)cn2)C1 [compound 429, 6-{[(3R)-1-(Cyclopropylcarbonyl)pyrrolidin-3-yl]methyl}-5-[5-(1H-indazol-4-yl)pyridin-2-yl]-4,6-diazaspiro[2.4]hept-4-en-7-one]",IC50,[1],417 nM
same,IC50,[2],> 10000 nM
same,inhibition at 10 µM,[3],96%
same,IC50,[3],240 nM
same,IC50,[5],513 nM
same,IC50,[6],1320 nM
"Cn1nc(CO)c2cc(-c3ccc(C4=NC5(CC5)C(=O)N4CC4CN(C(=O)C5CC5)C4)cc3)ccc21 [compound 530, 6-{[1-(Cyclopropylcarbonyl)azetidin-3-yl]methyl}-5-{4-[3-(hydroxymethyl)-1-methyl-1H-indazol-5-yl]phenyl}-4,6-diazaspiro[2.4]hept-4-en-7-one]",IC50,[1],776 nM
same,IC50,[2],> 10000 nM
same,inhibition at 10 µM,[3],97%
same,IC50,[3],263 nM
same,IC50,[5],2950 nM
same,IC50,[6],5130 nM
"Cc1cc(-c2cccc(NC(=O)C3CC3)c2)ccc1C1=NC2(CC2)C(=O)N1C[C@@H]1CCN(C(=O)C2CC2)C1 [compound 614, N-[4′-(6-{[(3R)-1-(Cyclopropylcarbonyl)pyrrolidin-3-yl]methyl}-7-oxo-4,6-diazaspiro[2.4]hept-4-en-5-yl)-3′-methylbiphenyl-3-yl]cyclopropanecarboxamide]",IC50,[1],170 nM
same,IC50,[2],> 10000 nM
same,inhibition at 10 µM,[3],102%
same,IC50,[3],151 nM
same,IC50,[5],309 nM
same,IC50,[6],1350 nM
"O=C(C1CC1)N1CC[C@@H](CN2C(=O)C3(CC3)N=C2c2ccc(-c3ccc4occc4c3)c(F)c2)C1 [compound 232, (R)-5-(4-(benzofuran-5-yl)-3-fluorophenyl)-6-((1-(cyclopropanecarbonyl)pyrrolidin-3-yl)methyl)-4,6-diazaspiro[2.4]hept-4-en-7-one]",IC50,[1],2400 nM
same,IC50,[2],> 6170 nM
same,inhibition at 10 µM,[3],105%
same,IC50,[3],83.2 nM
same,IC50,[5],324 nM
same,IC50,[6],1820 nM
"O=C(C1CC1)N1CC[C@@H](CN2C(=O)C3(CCCC3)N=C2c2ccc(-c3cnc4[nH]ccc4c3)cc2F)C1 [compound 881, (R)-3-((1-(cyclopropanecarbonyl)pyrrolidin-3-yl)methyl)-2-(2-fluoro-4-(1H-pyrrolo[2,3-b]pyridin-5-yl)phenyl)-1,3-diazaspiro[4.4]non-1-en-4-one]",IC50,[1],240 nM
same,IC50,[2],> 10000 nM
same,inhibition at 10 µM,[3],101%
same,IC50,[3],107 nM
same,IC50,[5],316 nM
same,IC50,[6],1320 nM
"Cc1cc(-c2ccc3c(cnn3C)c2)ccc1C1=NC2(CC2)C(=O)N1CC1CN(C(=O)C2(O)CC2)C1 [compound 498, 6-({1-[(1-Hydroxycyclopropyl)carbonyl]-azetidin-3-yl}methyl)-5-[2-methyl-4-(1-methyl-1H-indazol-5-yl)phenyl]-4,6-diazaspiro[2.4]hept-4-en-7-one]",inhibition at 10 µM,[3],99%
same,IC50,[4],234 nM
